Assay results from patent EP0514216A1, “Antihypotensive benzofuran derivatives with N-linked 1H-imidazolyl-methyl-5-carboxamide substituents” (GLAXO GROUP LIMITED, priority 1991, dated 1992).

Tested on: renal-ligated hypertensive rats
Test: anti-hypertensive activity in vivo using renal-ligated hypertensive rats
Parameters: unit not given here
Conditions: for Reduction in diastolic blood pressure after 7h. i.a.: 0.5mg/kg intra-arterially (i.a.); for Reduction in diastolic blood pressure after 7h. p.o.: 0.5mg/kg orally (p.o.)
Experimental: Compounds of the present invention are also analysed for their anti-hypertensive activity in vivo using renal-ligated hypertensive rats.

| Structure (SMILES) | Reduction in diastolic blood pressure after 7h. i.a. | Reduction in diastolic blood pressure after 7h. p.o. |
| --- | --- | --- |
| CCc1nc(Cl)c(C(N)=O)n1Cc1ccc2oc(-c3ccccc3NS(=O)(=O)C(F)(F)F)c(Br)c2c1 [Example 1, 1-[[3-Bromo-2-[2-[[(trifluoromethyl)sulphonyl]amino]phenyl]-5-benzofuranyl]methyl]-4-chloro-2-ethyl-1H-imidazole-5-carboxamide] | -49 | -55 |
| CCc1nc(C)c(C(=O)NC)n1Cc1ccc2oc(-c3ccccc3NS(=O)(=O)C(F)(F)F)c(Br)c2c1 [Example 13, 1-[[3-Bromo-2-[2-[[(trifluoromethyl)sulphonyl]amino]phenyl]-5-benzofuranyl]methyl]-2-ethyl-4-methyl-N-methyl-1H-imidazole-5-carboxamide] | -39 | -54 |
| CCc1nc(Cl)c(C(=O)NC)n1Cc1ccc2oc(-c3ccccc3NS(=O)(=O)C(F)(F)F)c(Br)c2c1 [Example 12, 1-[[3-Bromo-2-[2-[[(trifluoromethyl)sulphonyl]amino]phenyl]-5-benzofuranyl]methyl]-4-chloro-2-ethyl-N-methyl-1H-imidazole-5-carboxamide] | -42 | -31 |
| CCCc1nc(Cl)c(C(=O)NC)n1Cc1ccc2oc(-c3ccccc3NS(=O)(=O)C(F)(F)F)c(Br)c2c1 [Example 2, 1-[[3-Bromo-2-[2-[[(trifluoromethyl)sulphonyl]amino]phenyl]-5-benzofuranyl]methyl]-4-chloro-N-methyl-2-propyl-1H-imidazole-5-carboxamide] | -43 | -60 |
